In patent publication US12492188B2, “1H-benzo[D]imidazole derivatives as TLR9 inhibitors for the treatment of fibrosis” (BRISTOL-MYERS SQUIBB COMPANY, priority 2020, dated 2025) one finds IC50 data, which are given here for 8 molecules.

As usually defined, the IC50 is the concentration that gives 50% inhibition.

Common to all, as to type: cell-based
Assay [1] has as its target T1, human TLR8 (Homo sapiens, UniProt Q9NR97).
T1 construct: host or cells: HEK-Blue cells (HEK293-derived reporter line)
T1 sequence (Q9NR97 27-1041): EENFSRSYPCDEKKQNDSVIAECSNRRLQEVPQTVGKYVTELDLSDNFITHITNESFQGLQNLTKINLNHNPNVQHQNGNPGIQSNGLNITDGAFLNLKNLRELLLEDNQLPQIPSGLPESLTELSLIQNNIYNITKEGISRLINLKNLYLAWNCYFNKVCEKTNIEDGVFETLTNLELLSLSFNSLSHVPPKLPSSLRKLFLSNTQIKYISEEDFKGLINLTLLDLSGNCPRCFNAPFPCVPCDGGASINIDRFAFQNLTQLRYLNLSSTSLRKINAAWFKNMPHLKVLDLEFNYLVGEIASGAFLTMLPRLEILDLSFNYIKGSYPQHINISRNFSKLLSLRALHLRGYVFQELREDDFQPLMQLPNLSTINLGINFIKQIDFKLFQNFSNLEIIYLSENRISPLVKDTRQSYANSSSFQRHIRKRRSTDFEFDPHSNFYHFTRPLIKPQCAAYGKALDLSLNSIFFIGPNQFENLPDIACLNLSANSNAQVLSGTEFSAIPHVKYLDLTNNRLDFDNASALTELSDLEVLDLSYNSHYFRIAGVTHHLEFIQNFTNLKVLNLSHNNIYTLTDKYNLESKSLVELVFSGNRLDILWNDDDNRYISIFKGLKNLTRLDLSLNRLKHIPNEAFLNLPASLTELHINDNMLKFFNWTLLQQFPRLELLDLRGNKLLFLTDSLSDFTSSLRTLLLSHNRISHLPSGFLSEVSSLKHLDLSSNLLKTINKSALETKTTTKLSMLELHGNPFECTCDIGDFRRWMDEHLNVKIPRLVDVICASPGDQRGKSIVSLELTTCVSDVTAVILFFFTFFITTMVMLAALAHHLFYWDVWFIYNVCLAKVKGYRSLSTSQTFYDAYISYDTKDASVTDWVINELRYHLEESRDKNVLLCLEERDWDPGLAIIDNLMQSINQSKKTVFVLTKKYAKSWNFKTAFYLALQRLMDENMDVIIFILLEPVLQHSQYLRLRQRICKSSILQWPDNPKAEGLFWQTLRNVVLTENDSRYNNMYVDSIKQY
The assay can be described thus: TLR8 inhibition reporter assay (HEK-Blue cells, secreted embryonic alkaline phosphatase reporter). The conditions noted are these: HEK-Blue cells overexpressing human TLR8, stimulated with R848 15.9 μM; read-out: TLR 8 IC50. The procedure: (§1) TLR7/8/9 Inhibition Reporter Assays
(§2) HEK-Blue™-cells (Invivogen) overexpressing human TLR7, TLR8 or TLR9 receptors were used for screening inhibitors of these receptors using an inducible SLAP (secreted embryonic alkaline phosphatase) reporter gene under the control of the […] minimal promoter fused to five NF-κB and AP-1-binding sites. Briefly, cells are seeded into Greiner 384 well plates (15000 cells per well for TLR7, 20,000 for TLR8 and 25,000 for TLR9) and then treated with test compounds in DMSO to yield a final dose response concentration range of 0.05 nM-50 μM. After a 30 minute compound pre-treatment at room temperature, the cells are then stimulated with a TLR7 ligand (gardiquimod at a final concentration of 7.5 μM), TLR8 ligand (R848 at a final concentration of 15.9 μM) or TLR9 ligand (ODN2006 at a final concentration of 5 nM) to activate NF-κB and AP-1 which induce the production of SLAP. After a 22 hour incubation at 37° C., […], SLAP levels are determined with the addition of HEK-Blue™ Detection reagent (Invivogen), a cell culture medium that allows for detection of SLAP, according to manufacturer's specifications. The percent inhibition is determined as the […] in the HEK-Blue signal present in wells treated with agonist plus DMSO alone compared to wells treated with a known inhibitor.

In assay [2] the target is T2, human TLR7 (Homo sapiens, UniProt Q9NYK1).
T2 construct: host or cells: HEK-Blue cells (HEK293-derived reporter line)
T2 sequence (Q9NYK1 27-1049): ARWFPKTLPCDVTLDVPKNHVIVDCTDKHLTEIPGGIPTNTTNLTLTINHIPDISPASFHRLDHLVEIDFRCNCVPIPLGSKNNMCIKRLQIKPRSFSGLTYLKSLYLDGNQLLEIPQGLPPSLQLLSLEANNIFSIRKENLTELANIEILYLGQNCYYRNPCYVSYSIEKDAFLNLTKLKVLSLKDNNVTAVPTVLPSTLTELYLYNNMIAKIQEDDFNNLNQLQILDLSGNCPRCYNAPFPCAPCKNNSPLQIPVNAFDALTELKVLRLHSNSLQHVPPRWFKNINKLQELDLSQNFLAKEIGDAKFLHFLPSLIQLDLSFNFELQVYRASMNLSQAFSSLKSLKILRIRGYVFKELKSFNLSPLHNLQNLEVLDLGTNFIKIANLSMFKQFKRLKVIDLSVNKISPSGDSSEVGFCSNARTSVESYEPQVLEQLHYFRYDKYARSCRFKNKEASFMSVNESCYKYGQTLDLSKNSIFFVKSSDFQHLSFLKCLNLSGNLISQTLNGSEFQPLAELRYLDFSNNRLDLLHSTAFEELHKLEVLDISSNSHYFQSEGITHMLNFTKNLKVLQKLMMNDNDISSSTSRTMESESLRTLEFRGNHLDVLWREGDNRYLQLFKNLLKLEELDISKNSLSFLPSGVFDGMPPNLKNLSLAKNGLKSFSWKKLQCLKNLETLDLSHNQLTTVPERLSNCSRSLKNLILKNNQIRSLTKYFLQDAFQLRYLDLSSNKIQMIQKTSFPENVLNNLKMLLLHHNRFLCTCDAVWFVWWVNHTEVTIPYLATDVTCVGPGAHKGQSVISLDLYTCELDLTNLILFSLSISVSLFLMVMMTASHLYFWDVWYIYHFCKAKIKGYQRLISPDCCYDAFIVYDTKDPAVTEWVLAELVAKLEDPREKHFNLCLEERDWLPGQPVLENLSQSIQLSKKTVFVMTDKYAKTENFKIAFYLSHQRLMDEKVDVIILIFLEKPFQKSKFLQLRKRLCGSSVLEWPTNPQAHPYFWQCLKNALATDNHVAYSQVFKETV
The assay is described as follows: TLR7 inhibition reporter assay (HEK-Blue cells, secreted embryonic alkaline phosphatase reporter). The note with it: HEK-Blue cells overexpressing human TLR7, stimulated with gardiquimod 7.5 μM; read-out: TLR 7 IC50. The protocol:
as §1, §2

Assay [3] concerns the target T3, human TLR9 (Homo sapiens, UniProt Q9NR96).
T3 construct: host or cells: HEK-Blue cells (HEK293-derived reporter line)
T3 sequence (Q9NR96 26-1032): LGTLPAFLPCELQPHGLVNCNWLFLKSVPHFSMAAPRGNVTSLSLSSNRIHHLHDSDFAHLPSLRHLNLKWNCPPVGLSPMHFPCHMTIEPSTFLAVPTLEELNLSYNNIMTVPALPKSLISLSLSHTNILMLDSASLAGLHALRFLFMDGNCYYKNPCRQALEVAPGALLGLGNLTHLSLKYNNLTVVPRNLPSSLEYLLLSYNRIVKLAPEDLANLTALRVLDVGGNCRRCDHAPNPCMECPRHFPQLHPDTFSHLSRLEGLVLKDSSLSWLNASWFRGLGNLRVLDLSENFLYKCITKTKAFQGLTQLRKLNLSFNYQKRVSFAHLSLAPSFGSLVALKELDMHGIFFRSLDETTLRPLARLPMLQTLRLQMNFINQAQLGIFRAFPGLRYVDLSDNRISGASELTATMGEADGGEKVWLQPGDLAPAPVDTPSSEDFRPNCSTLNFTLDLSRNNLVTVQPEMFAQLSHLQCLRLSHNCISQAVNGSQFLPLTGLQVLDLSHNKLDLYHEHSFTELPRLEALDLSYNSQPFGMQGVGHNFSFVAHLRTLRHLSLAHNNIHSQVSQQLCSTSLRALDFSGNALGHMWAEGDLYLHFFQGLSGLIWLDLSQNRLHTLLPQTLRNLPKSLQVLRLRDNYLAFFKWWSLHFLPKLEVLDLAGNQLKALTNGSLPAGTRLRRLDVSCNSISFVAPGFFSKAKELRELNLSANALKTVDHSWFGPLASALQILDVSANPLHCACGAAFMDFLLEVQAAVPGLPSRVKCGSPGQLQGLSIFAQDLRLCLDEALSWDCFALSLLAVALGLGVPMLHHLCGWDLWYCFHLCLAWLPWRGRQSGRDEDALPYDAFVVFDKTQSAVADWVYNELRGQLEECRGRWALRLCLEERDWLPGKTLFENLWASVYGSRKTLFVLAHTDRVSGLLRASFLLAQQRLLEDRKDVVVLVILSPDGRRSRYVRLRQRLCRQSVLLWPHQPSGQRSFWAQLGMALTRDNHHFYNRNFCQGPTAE
The assay is described as follows: TLR9 inhibition reporter assay (HEK-Blue cells, secreted embryonic alkaline phosphatase reporter). The conditions noted are these: HEK-Blue cells overexpressing human TLR9, stimulated with ODN2006 5 nM. The procedure, abridged: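 Cells seeded at 15000 (TLR7), 20,000 (TLR8) or 25,000 (TLR9) per well; compound 0.05 nM–50 μM, 30 min RT pre-incubation. Agonists: gardiquimod 7.5 μM, R848 15.9 μM, ODN2006 5 nM respectively. 22 h, 37 °C; SEAP via HEK-Blue Detection; % inhibition vs agonist+DMSO and known-inhibitor wells.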
A general note: A reporter such as luciferase makes a cellular process visible.

Setting [4] is: 22 hour incubation, reporter readout.

Molecules are shown by their SMILES. Read-outs that look alike come from different tables or passages of the source.

On to `Cc1cc(C2CCN(C3CC4CCC(C3)N4C(C)C)CC2)cc2c1nc(-c1ccc(S(C)(=O)=O)cc1)n2C` (single isomer, unassigned) [Example 85, 6-(1-(8-isopropyl-8-azabicyclo[3.2.1]octan-3-yl)piperidin-4-yl)-1,4-dimethyl-2-(4-(methylsulfonyl)phenyl)-1H-benzo[d]imidazole], for which the IC50 in assay [1] is greater than 25000 nM; in assay [2], 5700 nM; in assay [3] (setting [4]), 110 nM; in assay [3] (read-out: TLR 9 IC50), 106 nM.
The matching figures for `CC(C)N1C2CCC1CC(N1CCC(c3ccc4c(nc(-c5ccc(S(C)(=O)=O)cc5)n4C)c3F)CC1)C2` (single isomer, unassigned) [Example 89, 4-fluoro-5-(1-(8-isopropyl-8-azabicyclo[3.2.1]octan-3-yl)piperidin-4-yl)-1-methyl-2-(4-(methylsulfonyl)phenyl)-1H-benzo[d]imidazole]: greater than 50000 nM, greater than 50000 nM, 160 nM and 162 nM.
For the molecule `CC(C)N1C2CCC1CC(N1CCC(c3ccc4c(nc(-c5ccc(S(C)(=O)=O)cc5)n4C)c3F)CC1)C2` (single isomer, unassigned) [Example 90, 4-fluoro-5-(1-(8-isopropyl-8-azabicyclo[3.2.1]octan-3-yl)piperidin-4-yl)-1-methyl-2-(4-(methylsulfonyl)phenyl)-1H-benzo[d]imidazole], the IC50 in assay [1] is greater than 50000 nM; in assay [2], greater than 50000 nM; in assay [3] (setting [4]), 230 nM; in assay [3] (read-out: TLR 9 IC50) it was 231 nM.
For the molecule `CC(C)N1C2CCC1CC(N1CCC(c3cc(F)c4c(c3)nc(-c3ccc(S(C)(=O)=O)cc3)n4C)CC1)C2` (single isomer, unassigned) [Example 92, 7-fluoro-5-(1-(8-isopropyl-8-azabicyclo[3.2.1]octan-3-yl)piperidin-4-yl)-1-methyl-2-(4-(methylsulfonyl)phenyl)-1H-benzo[d]imidazole], the 50% inhibitory concentration (IC50) in assay [1] was greater than 50000 nM; in assay [2], greater than 50000 nM; in assay [3] (setting [4]), 110 nM; in assay [3] (read-out: TLR 9 IC50), 105 nM.
On to `CC(C)N1C2CCC1CC(N1CCC(c3cc(F)c4c(c3)nc(-c3ccc(S(C)(=O)=O)cc3)n4C)CC1)C2` (single isomer, unassigned) [Example 93, 7-fluoro-5-(1-(8-isopropyl-8-azabicyclo[3.2.1]octan-3-yl)piperidin-4-yl)-1-methyl-2-(4-(methylsulfonyl)phenyl)-1H-benzo[d]imidazole], for which the half-maximal inhibitory concentration (IC50) in assay [1] was greater than 50000 nM; in assay [2] it was greater than 50000 nM; in assay [3] (setting [4]), 650 nM.
As for `CC(C)N1C2CCC1CC(N1CCC(c3ccc4nc(-c5ccc(S(C)(=O)=O)cc5)[nH]c4c3F)CC1)C2` (single isomer, unassigned) [Example 94, 7-fluoro-6-(1-(8-isopropyl-8-azabicyclo[3.2.1]octan-3-yl)piperidin-4-yl)-2-(4-(methylsulfonyl)phenyl)-1H-benzo[d]imidazole], the IC50 in assay [1] was greater than 50000 nM; in assay [2] it was greater than 50000 nM; in assay [3] (setting [4]) it was 73 nM.
`CC(C)N1C2CCC1CC(N1CCC(c3ccc4nc(-c5ccc(S(C)(=O)=O)cc5)[nH]c4c3F)CC1)C2` (single isomer, unassigned) [Example 95, 7-fluoro-6-(1-(8-isopropyl-8-azabicyclo[3.2.1]octan-3-yl)piperidin-4-yl)-2-(4-(methylsulfonyl)phenyl)-1H-benzo[d]imidazole]: the figures for the IC50 in assay [1], in assay [2] and in assay [3] (setting [4]) were greater than 50000 nM, greater than 50000 nM and 29 nM, respectively.
With `CC(C)N1C2CCC1CC(N1CCC(c3cc4c(cc3F)nc(-c3ccc(S(C)(=O)=O)cc3)n4C)CC1)C2` (single isomer, unassigned) [Example 97, 5-fluoro-6-(1-(8-isopropyl-8-azabicyclo[3.2.1]octan-3-yl)piperidin-4-yl)-1-methyl-2-(4-(methylsulfonyl)phenyl)-1H-benzo[d]imidazole], the IC50 is greater than 50000 nM in assay [1], 47000 nM in assay [2] and 79 nM in assay [3] (setting [4]).
